Laboratory results: patent publication US11236055B2 (Venenum Biodesign, LLC, priority 2016, dated 2022)

Legend:
human TGR5 receptor = biological target: T1, human TGR5 receptor (Homo sapiens, UniProt Q8TDU6); test: Human TGR5 cAMP production assay; assay type: cell-based; settings: human TGR5, luminescent cAMP assay; coded A-D; read-out: Human TGR5 Lum. cAMP Activity (EC50)
T1 construct: host or cells: CHO-K1 (hTGR5-CHO cells)
T1 sequence (Q8TDU6 1-330): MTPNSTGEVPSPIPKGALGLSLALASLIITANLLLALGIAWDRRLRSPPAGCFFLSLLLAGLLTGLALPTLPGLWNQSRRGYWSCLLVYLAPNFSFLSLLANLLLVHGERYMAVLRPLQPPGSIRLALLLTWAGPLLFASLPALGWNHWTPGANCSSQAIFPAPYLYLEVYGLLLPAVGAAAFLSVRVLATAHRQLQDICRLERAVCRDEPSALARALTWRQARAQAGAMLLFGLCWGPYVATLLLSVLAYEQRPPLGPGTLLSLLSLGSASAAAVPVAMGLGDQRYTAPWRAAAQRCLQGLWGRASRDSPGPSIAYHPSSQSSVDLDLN
Outline: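 CHO-K1 cells stably expressing human TGR5, with IBMX and cAMP antibody, were exposed to half-log serially diluted compound for 1 h at room temperature. cAMP measured by enzyme-fragment complementation luminescence (XS+ kit) after overnight incubation; EC50 values reported.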

mouse TGR5 receptor = biological target: T2, mouse TGR5 receptor (Mus musculus, UniProt Q80SS6); test: Mouse TGR5 cAMP production assay (HTRF, Cisbio cAMP HiRange); assay type: cell-based; settings: HEK293-EBNA cells overexpressing mouse TGR5, HTRF cAMP HiRange; coded A-D
T2 construct: expressed in transfected cells; host or cells: HEK293-EBNA (293 c18, ATCC CRL10852), Hygromycin B selection
T2 sequence (Q80SS6 1-329): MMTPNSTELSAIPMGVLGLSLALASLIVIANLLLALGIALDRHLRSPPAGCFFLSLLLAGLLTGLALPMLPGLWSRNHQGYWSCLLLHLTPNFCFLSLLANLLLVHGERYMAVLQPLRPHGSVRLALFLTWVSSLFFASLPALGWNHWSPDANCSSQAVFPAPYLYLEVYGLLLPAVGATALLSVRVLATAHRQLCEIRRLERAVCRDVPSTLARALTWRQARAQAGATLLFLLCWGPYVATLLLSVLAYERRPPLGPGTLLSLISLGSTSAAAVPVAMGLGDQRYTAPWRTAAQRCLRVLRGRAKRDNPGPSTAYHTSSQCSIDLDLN
Outline: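 cAMP read by HTRF competition after 1 h room-temperature compound exposure of mouse TGR5-overexpressing HEK293-EBNA cells. Cells were suspended in serum-free DMEM containing 500 μM IBMX; compounds ran as 12-point half-log dilutions in duplicate; EC50 derived.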

| EC50 (human TGR5 receptor) [nM] | EC50 (mouse TGR5 receptor) [nM] | Structure (SMILES) |
| --- | --- | --- |
| < 100 | < 100 | CCc1cnccc1-c1cccc(C2CN(C(=O)CS(=O)(=O)O)CCN2S(=O)(=O)c2cccc(Cl)c2C)c1 (centres unmarked) [Compound 49, 2-(4-((3-Chloro-2-methylphenyl)sulfonyl)-3-(3-(3-ethylpyridin-4-yl)phenyl)piperazin-1-yl)-2-oxoethanesulfonic acid] |
| < 100 | < 100 | Cc1cnccc1-c1cccc([C@H](C)N(CCCCC(=O)NCCS(=O)(=O)O)S(=O)(=O)c2cccc(Cl)c2C)c1 [Compound 20AH, (S)-2-(5-(3-chloro-2-methyl-N-(1-(3-(3-methylpyridin-4-yl)phenyl)ethyl)phenylsulfonamido)pentanamido)ethanesulfonic acid] |
| < 100 | < 100 | CCc1cnccc1-c1cccc(C(C)(C)N(CCCC(=O)NCCS(=O)(=O)O)S(=O)(=O)c2ccccc2C(F)(F)F)c1 [Compound 20, 2-(4-(N-(2-(3-(3-ethylpyridin-4-yl)phenyl)propan-2-yl)-2-(trifluoromethyl)-phenylsulfonamido)butanamido)ethanesulfonic acid] |
| < 100 | < 100 | Cc1cnccc1-c1cccc([C@H](C)N(CCCC(=O)NCCNS(=O)(=O)NCC(=O)O)S(=O)(=O)c2cccc(Cl)c2C)c1 [Compound 38] |
